How the values were obtained:
succinate dehydrogenase = biological target: T1, succinate dehydrogenase (Botrytis cinerea, UniProt A0A384J5E4+A0A384J8V8+A0A384JHJ5); test: Enzyme inhibition: succinate dehydrogenase activity in Botrytis cinerea mitochondria (DCPIP reduction); format: biochemical; conditions: concentration required to inhibit the rate of DCPIP reduction by 50%; Botrytis cinerea isolate Nick mitochondria; read-out: I50 (μM conc.)
T1 construct: succinate-DCPIP reductase assay with KCN
T1 sequence (A0A384J5E4 1-300): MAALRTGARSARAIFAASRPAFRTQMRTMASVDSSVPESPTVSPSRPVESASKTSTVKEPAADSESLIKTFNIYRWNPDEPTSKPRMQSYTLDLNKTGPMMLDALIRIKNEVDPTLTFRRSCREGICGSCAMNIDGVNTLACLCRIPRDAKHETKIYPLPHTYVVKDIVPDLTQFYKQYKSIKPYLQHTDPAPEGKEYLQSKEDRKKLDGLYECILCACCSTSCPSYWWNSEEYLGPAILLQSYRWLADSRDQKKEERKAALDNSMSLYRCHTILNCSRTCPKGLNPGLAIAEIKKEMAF
T1 sequence (A0A384J8V8 1-189): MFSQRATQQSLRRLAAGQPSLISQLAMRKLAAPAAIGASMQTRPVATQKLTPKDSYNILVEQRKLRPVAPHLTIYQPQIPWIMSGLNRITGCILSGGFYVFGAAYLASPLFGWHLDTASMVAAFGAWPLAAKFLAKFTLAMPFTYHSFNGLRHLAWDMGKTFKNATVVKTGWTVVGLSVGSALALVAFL
T1 sequence (A0A384JHJ5 1-192): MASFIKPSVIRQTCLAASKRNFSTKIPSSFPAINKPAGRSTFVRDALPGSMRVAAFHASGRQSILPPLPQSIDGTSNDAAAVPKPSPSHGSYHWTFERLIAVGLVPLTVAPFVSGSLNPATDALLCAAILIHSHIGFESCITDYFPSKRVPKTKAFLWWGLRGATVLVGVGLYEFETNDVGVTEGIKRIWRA
T1 sequence (A0A384K456 1-647 partner): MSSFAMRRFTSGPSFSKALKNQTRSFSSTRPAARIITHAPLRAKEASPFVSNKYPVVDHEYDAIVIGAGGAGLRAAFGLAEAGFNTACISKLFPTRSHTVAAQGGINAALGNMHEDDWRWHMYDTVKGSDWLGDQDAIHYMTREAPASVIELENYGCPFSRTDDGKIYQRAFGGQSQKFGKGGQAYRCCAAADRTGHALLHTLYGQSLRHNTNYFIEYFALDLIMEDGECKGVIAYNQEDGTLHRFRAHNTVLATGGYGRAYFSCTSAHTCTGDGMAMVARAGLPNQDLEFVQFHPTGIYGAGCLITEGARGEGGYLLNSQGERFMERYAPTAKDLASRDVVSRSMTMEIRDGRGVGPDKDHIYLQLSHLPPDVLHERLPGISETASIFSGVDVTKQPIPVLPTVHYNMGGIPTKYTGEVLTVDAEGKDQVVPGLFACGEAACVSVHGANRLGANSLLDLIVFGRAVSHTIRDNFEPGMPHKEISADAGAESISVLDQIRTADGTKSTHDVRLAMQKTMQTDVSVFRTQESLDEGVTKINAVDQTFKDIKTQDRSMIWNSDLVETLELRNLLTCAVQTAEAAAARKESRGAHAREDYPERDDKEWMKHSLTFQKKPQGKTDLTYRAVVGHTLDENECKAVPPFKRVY
Summary of the method: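 DCPIP (45 μM) reduction at 600 nm tracked with 17 mM succinate, 1 mM KCN and 50 mM potassium phosphate, pH 7.2. Compounds were added in acetone (final 1% v/v), and Botrytis cinerea isolate Nick mitochondrial fraction initiated the reaction. Rates minus endogenous activity gave percentage inhibition, plotted semilog against concentration to derive I50 (μM).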

Rhizoctonia solani = test: Rice sheath blight; format: in vivo; set-up: scale not given here; conditions: inoculated two days later, rated after 7 days, average of five plants; for Disease Control Rating at 0.02 mg/mL: foliage and soil sprayed with 0.02 mg/mL; for Disease Control Rating at 0.1 mg/mL: foliage and soil sprayed with 0.1 mg/mL; for Disease Control Rating at 0.5 mg/mL: foliage and soil sprayed with 0.5 mg/mL
Summary of the method: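 Preventive test: R. solani inoculum on rice grain was applied at the plant base two days after spraying foliage and soil with Compound A (0.5, 0.1 or 0.02 mg/mL, water/acetone/Tween 20). Plants aged 11–15 days stood in flood trays; after 7 days at 25 °C and high humidity, disease control was rated against untreated plants, five plants averaged.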

Botrytis cinerea [1] = test: Eggplant grey mold; format: in vivo; set-up: scale not given here; conditions: inoculated 24 h later, rated after 3-4 days; for Disease Control Rating at 500 ppm: eggplant sprayed with 500 ppm; for Disease Control Rating at 20 ppm: eggplant sprayed with 20 ppm; for Disease Control Rating at 100 ppm: eggplant sprayed with 100 ppm
Summary of the method: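 Protective test: compound formulations (2:3 acetone:water, 0.5% Tween 20; 500, 100 or 20 ppm) sprayed on 14-18-day-old plants, with spore inoculum (4×10^6 spore/mL) applied a day later. Disease control rated on Botrytis lesions after 3-4 days at 23 °C and 100% humidity.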

Botrytis cinerea [2] = test: Vine grey mold (grape berries); format: in vivo; conditions: average of six berries, 7-10 days; for pest or weed control at 50 ppm: grape berries treated with 50 ppm, read-out: % DISEASE CONTROL 50 ppm; for pest or weed control at 200 ppm: grape berries treated with 200 ppm, read-out: % DISEASE CONTROL 200 ppm
Summary of the method: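 Preventive berry test: compound at 50 or 200 ppm (acetone/water, 0.05% Tween 20) applied one day before inoculation with 10^6 spores/mL Botrytis conidia. After 7-10 days at 20 °C under 12 h light, infected surface area rated; disease control expressed as percent reduction from control mean; repeated-test values averaged.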

SMILES | IC50 (succinate dehydrogenase) [µM] | Disease Control Rating at 0.02 mg/mL (Rhizoctonia solani) | Disease Control Rating at 0.1 mg/mL (Rhizoctonia solani) | Disease Control Rating at 0.5 mg/mL (Rhizoctonia solani) | Disease Control Rating at 500 ppm (Botrytis cinerea [1]) | pest or weed control at 50 ppm (Botrytis cinerea [2]) [%] | pest or weed control at 200 ppm (Botrytis cinerea [2]) [%] | Disease Control Rating at 20 ppm (Botrytis cinerea [1]) | Disease Control Rating at 100 ppm (Botrytis cinerea [1])
Cc1c(C(=O)Nc2ccccc2[C@@H]2C[C@H]3CC[C@@H]2C3)c(C(F)(F)F)nn1C (relative stereo) [Example 100, 1H-pyrazole-4-carboxamide, N-(2-bicyclo[2.2.1]hept-2-ylphenyl)-1,5-dimethyl-3-(trifluoromethyl)-, exo-] | 0.19 | 0 | 1 | 2 | 0 | 0 | 22 | – | –
CSc1nn(C)cc1C(=O)Nc1ccccc1C1CCCCC1 [Example 39, 1H-pyrazole-4-carboxamide, N-(2-cyclohexylphenyl)-1-methyl-3-(methylthio)-] | 0.36 | – | – | 0 | 1 | 50 | 55 | – | –
Cn1cc(C(=O)Nc2ccccc2C2CCCCCCC2)c(C(F)(F)F)n1 [Example 25, 1H-pyrazole-4-carboxamide, N-(2-cyclooctylphenyl)-1-methyl-3-(trifluoromethyl)-] | 0.0011 | – | – | 1 | 2 | 66 | 78 | 1 | 2
Cn1cc(C(=O)Nc2ccccc2CC2=CCCC2)c(C(F)F)n1 [Example 117, 1H-pyrazole-4-carboxamide, N-[2-(1-cyclopenten-1-ylmethyl)phenyl]-3-(difluoromethyl)-1-methyl-] | 0.17 | – | – | 0 | 2 | 80 | 19 | 0 | 1
Cn1cc(C(=S)Nc2ccccc2C2CCCCCC2)c(C(F)(F)F)n1 [Example 78, 1H-pyrazole-4-carbothioamide, N-(2-cycloheptylphenyl)-3-(trifluoromethyl)-1-methyl] | 8.7 | – | – | 0 | 2 | 35 | 35 | 1 | 1
Cn1cc(C(=O)Nc2ccccc2C2CCCC2)c(I)n1 [Example 69, 1H-pyrazole-4-carboxamide, N-(2-cyclopentylphenyl)-3-iodo-1-methy1-] | 0.033 | 0 | 2 | 3 | 0 | 30 | 70 | – | –
C[C@@H]1CCC[C@H](C)[C@@H]1Oc1ccccc1NC(=O)c1cn(C)nc1C(F)(F)F [Example 74, 1H-pyrazole-4-carboxamide, 1-methyl-N-[2-[(2,6-dimethylcyclohexyl)oxy]phenyl]-3-(trifluoromethyl)-, (lalpha,2alpha,6alpha)-] | 0.09 | – | – | 0 | 1 | 4 | 0 | 0 | 0
Cc1c(C(=O)Nc2ccccc2C2CCCCCC2)c(C(F)(F)F)nn1C [Example 99, 1H-pyrazole-4-carboxamide, N-(2-cycloheptylphenyl)-1,5-dimethyl-3-(trifluoromethyl)-] | 0.065 | 2 | 3 | 3 | 1 | 27 | 53 | – | –
Cn1cc(C(=O)Nc2ccccc2C2=CCCCCCC2)c(C(F)(F)F)n1 [Example 120, 1H-pyrazole-4-carboxamide, N-[2-(1-cycloocten-1-yl)phenyl]-1-methyl-3-(trifluoromethyl)-] | 0.0041 | – | – | 3 | 2 | 60 | 82 | 0 | 0
O=C(Nc1ccccc1C1CCCCC1)c1c[nH]nc1C(F)F [Example 15, 1H-pyrazole-4-carboxamide, N-(2-cyclohexylphenyl)-3-(difluoromethyl)-] | 0.014 | – | – | 0 | 2 | 36 | 89 | 2 | 3
Cn1cc(C(=O)Nc2ccccc2[C@@H]2C[C@H]3CC[C@@H]2C3)c(C(F)(F)F)n1 (relative stereo) [Example 27, 1H-pyrazole-4-carboxamide, N-(2-bicyclo[2.2.1]hept-2-ylphenyl)-1-methyl-3-(trifluoromethyl)-, exo-] | 0.0048 | – | – | 0 | 2 | 80 | 74 | 0 | 1
Cn1cc(C(=O)Nc2ccccc2C=C2CCCCC2)c(C(F)F)n1 [Example 116, 1H-pyrazole-4-carboxamide, N-[2-(cyclohexylidenemethyl)phenyl]-3-(difluoromethyl)-1-methyl-] | 0.048 | 1 | 1 | 3 | 1 | 21 | 68 | 0 | 0
Cn1nc(C(F)(F)F)c(C(=O)Nc2ccccc2C2CCCCCC2)c1F [Example 86, 1H-pyrazole-4-carboxamide, N-(2-cycloheptylphenyl)-5-fluoro-1-methyl-3-(trifluoromethyl)-] | 0.0063 | 3 | 3 | 3 | 0 | 66 | 82 | – | –
Cn1cc(C(=O)Nc2ccccc2CC2CCCC2)c(C(F)(F)F)n1 [Example 142, 1H-pyrazole-4-carboxamide, N-[2-(cyclopentylmethyl)phenyl]-1-methyl-3-(trifluoromethyl)-] | 0.22 | – | – | 3 | 1 | 0 | 18 | 0 | 1
Cn1cc(C(=O)Nc2ccccc2C2=CCCCCC2)c(C(F)F)n1 [Example 111, 1H-pyrazole-4-carboxamide, N-[2-(1-cyclohepten-1-yl)phenyl]-3-(difluoromethyl)-1-methyl-] | 0.0038 | 3 | 3 | 3 | 1 | 99 | 100 | 1 | 1
